The target of experiment [1] is CFTR channel (Homo sapiens, UniProt P13569). As to the kind of experiment: 125I radioactive iodide efflux in CHO-CFTR(+) cells. The format is cell-based. Also noted: expressed in transfected cells; host or cells: CHO (Chinese hamster ovary) cells, CHO-CFTR(+). On the procedure: The cells are cultured in 24-well plates with a dilution to 1/10 after passage. […] The operation is repeated every 30 s for 2 to 6 min. […] All the samples are counted in a gamma counter (Kontron). The precipitated proteins are solubilized in 0.1N NaOH and quantified using a calorimetric test.
(§1) The tracer contained in the cell layer at the beginning of the efflux is calculated as the sum of the samples and of the extracts counted. The efflux curves are constructed by expressing the percentage of the content remaining in the cell layer (I %) with respect to time. The stimulated or nonstimulated efflux rate constants (k, min^−1) are determined by smoothing the efflux curves to a monoexponential function I %=100*exp(−kt) using a linear regression of the neperian logarithm of the data, k is used to calculate the iodide released into the medium with respect to time. The hypothesis is made that, in the presence of a stimulator, the efflux is the sum of two iodide effluxes occurring in parallel: a basal efflux and a stimulated efflux characterized, respectively, by the constants kb and ks. The total net efflux is then described by the equation It^%=100*(1−exp(−ktt)) where kt is the sum of kb and ks. Finally, ks calculated as kt−kb is used to establish a dose-response relationship for antagonists. The data is expressed as means ±SD, and the t-test is used to determine the significances. The concentration-response curves for agonists or for antagonists are smooth using the hyperbolic equation Y=Ymax*X/(EC5C+X), where Y is the response. Y begins at the basal level and progresses to the plateau (Ymax), X is the concentration and the half-effect values (EC are calculated using GraphPad Prism v3.0 (GraphPad software)).

Experiment [2] concerns the target T1, human CFTR channel endogenously expressed in Calu-3 (Homo sapiens, UniProt P13569).
T1 construct: human pulmonary epithelial cells endogenously expressing the CFTR channel; host or cells: Calu-3 human pulmonary epithelial cells
As to the kind of experiment: iodide efflux in Calu-3 human bronchial epithelial cells. The format is cell-based. Particulars: for EC50: Calu-3 cells, read-out: half-effect concentration (EC50). As for the experimental part: (§2) The CFTR studies are also carried out on Calu-3 cells (ATCC No. HTB-55), which are human pulmonary epithelial cells endogenously expressing the CFTR channel. These cells are cultured under the same culture conditions as the CHO cells. The study of the mutated CFTR channel is carried out on JME/CF15 cells, which are epithelial cells extracted from respiratory airways of patients suffering from cystic fibrosis (homozygous ΔF508) (Jefferson et al., 1990). These cells therefore express the ΔF508 mutated CFTR channel. These cells are cultured under the same conditions as above, but the culture medium is supplemented with a hormone mixture containing: adenine (180 μM), insulin (5 μg/ml), transferrin (5 μg/ml), hydrocortisone (1.1 μM), triiodothyronine (2 nM), epinephrine (5.5 μM), epidermal growth factor (1.64 nM).
(§3) This technique makes it possible to follow the kinetics of exit of the ^125I radioactive iodide. The cells are cultured in 24-well plates with a dilution to 1/10 after passage. On the fourth day of culture, the drugs to be tested are dissolved in solution according to the desired concentration, at 37° C., in medium B, at pH 7.4, containing, in mM: 137 NaCl, 5.36 KCl, 0.8 mM MgCl2, 1.8 mM CaCl2, 5.5 glucose and 10 HEPES-NaOH. The wells are washed 4 times with 500 μl of medium B. The solution is subsequently replaced with 500 μl of loading solution containing 1 μM KI and 0.5 μCi of ^125INa/ml for 30 min. The kinetics of exit of ^125I are determined after having eliminated the loading solution and washed the wells 4 times with 500 μl of medium B. For the ^125I exit kinetics, 500 μl of medium B containing or not containing the molecules to be tested are incubated for 30 sec in the wells and recovered in a hemolysis tube, so as to be replaced with 500 μl of medium B containing or not containing the molecules to be tested. The operation is repeated every 30 s for 2 to 6 min. At the end of the efflux, the intracellular ions are extracted by adding 1 ml of trichloroacetic acid (7.5%) to the cell layer. All the samples are counted in a gamma counter (Kontron). The precipitated proteins are solubilized in 0.1N NaOH and quantified using a calorimetric test.
as §1, with “The concentration-response curves for agonists or for antagonists are smooth using the hyperbolic equation Y=Ymax*X/(EC5C+X), where Y is the response.” left out

The target of experiment [3] is T2, ΔF508 mutated CFTR channel (Homo sapiens, UniProt P13569, DEL508-508).
T2 construct: epithelial cells extracted from respiratory airways of patients suffering from cystic fibrosis (homozygous ΔF508); endogenous in cells; host or cells: JME/CF15 human airway epithelial cells (homozygous ΔF508)
As to the kind of experiment: iodide efflux in JME/CF15 human bronchial epithelial cells from cystic fibrosis patients. Type of experiment: cell-based. Particulars: JME/CF15 cells. As for the experimental part: as §2, §3
as §1, with “The concentration-response curves for agonists or for antagonists are smooth using the hyperbolic equation Y=Ymax*X/(EC5C+X), where Y is the response.” left out

For experiment [4], the system named is CHO cells. As to the kind of experiment: ATP-induced calcium response (cellular uncoupling) in CHO cells. Type of experiment: cell-based, Chinese hamster. Particulars: α-GA 10 to 100 μM, octan-1-ol 1 mM. As for the experimental part:
The Ca^2+ measurements are carried out in the presence of fura-2 (impermeant fluorescent probe) which binds […]. The cells are incubated in serum-free DMEM/F12 culture medium in the presence of the permeant form of fura-2 (fura-2/AM, 2.5 μM) for 1 h at 37° C. The cells, placed on the platform of an epifluorescent microscope (Olympus) (20× objective), are perfused with the solutions to be tested (e.g. ATP, octanol). They are sequentially illuminated at 340 nm and 380 nm and the fluorescence emitted (F) is measured at 510 nm. It is detected via a 12-bit CCD camera (Sony) connected to a data processing computer unit (TILL Photonics). The intracellular Ca^2+ concentration [Ca^2+]i is calculated using the Grynckiewicz equation (Grynckiewicz et al., 1985): [Ca^2+]i=Kdi *(R−Rmin/Rmax−R), based on the ratiometric analysis R (340/380 nm) of the fluorescence (TILL Vision); Rmax and Rmin denote the ratio of fluorescence measured in the presence or in the absence of Ca^2+.

Consider one molecule from US20070191493A1, “Use of n-alkanols as activators of the cftr channel” (priority 2003, published 2007).

Like-named read-outs stand apart in the source and are kept apart here.

T1 sequence (P13569 whole entry): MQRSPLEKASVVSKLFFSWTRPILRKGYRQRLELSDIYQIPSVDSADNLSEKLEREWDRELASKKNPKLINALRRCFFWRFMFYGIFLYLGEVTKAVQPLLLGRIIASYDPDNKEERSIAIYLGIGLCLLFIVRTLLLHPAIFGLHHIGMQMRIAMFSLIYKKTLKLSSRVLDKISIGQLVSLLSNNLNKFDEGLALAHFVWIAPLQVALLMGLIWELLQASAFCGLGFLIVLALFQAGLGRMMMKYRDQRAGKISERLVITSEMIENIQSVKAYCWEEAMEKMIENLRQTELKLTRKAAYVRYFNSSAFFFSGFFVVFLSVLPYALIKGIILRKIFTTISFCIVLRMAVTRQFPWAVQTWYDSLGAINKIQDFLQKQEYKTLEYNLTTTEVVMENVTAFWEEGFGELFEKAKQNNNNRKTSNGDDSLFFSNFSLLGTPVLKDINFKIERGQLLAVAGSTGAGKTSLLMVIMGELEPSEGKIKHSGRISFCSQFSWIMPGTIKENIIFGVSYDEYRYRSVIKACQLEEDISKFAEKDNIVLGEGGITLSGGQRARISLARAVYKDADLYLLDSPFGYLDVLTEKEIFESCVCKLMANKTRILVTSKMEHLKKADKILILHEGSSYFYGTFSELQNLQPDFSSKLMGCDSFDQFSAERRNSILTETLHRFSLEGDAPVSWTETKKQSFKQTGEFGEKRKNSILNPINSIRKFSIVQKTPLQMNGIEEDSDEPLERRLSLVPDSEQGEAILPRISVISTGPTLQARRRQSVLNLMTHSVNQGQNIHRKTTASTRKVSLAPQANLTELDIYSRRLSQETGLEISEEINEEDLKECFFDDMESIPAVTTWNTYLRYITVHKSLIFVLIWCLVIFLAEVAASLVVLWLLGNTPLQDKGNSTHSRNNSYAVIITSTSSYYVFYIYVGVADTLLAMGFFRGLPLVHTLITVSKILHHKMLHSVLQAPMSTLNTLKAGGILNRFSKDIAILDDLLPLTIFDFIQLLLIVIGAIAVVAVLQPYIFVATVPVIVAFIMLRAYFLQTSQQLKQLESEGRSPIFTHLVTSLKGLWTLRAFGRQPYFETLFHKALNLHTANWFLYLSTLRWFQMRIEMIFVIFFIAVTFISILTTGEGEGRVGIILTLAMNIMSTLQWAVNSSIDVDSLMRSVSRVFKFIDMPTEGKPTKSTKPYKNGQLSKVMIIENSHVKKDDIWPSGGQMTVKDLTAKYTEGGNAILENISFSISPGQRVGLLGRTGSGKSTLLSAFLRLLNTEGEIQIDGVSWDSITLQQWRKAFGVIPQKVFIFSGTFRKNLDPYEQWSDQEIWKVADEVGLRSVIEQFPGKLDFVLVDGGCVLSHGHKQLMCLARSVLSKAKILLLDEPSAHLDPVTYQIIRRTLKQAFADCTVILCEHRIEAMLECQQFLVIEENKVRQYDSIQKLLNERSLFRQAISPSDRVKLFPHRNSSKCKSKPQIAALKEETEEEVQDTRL
Chain of CFTR channel (P13569 whole entry): as above
T2 sequence (P13569 with tags, fused parts or gaps DEL508-508): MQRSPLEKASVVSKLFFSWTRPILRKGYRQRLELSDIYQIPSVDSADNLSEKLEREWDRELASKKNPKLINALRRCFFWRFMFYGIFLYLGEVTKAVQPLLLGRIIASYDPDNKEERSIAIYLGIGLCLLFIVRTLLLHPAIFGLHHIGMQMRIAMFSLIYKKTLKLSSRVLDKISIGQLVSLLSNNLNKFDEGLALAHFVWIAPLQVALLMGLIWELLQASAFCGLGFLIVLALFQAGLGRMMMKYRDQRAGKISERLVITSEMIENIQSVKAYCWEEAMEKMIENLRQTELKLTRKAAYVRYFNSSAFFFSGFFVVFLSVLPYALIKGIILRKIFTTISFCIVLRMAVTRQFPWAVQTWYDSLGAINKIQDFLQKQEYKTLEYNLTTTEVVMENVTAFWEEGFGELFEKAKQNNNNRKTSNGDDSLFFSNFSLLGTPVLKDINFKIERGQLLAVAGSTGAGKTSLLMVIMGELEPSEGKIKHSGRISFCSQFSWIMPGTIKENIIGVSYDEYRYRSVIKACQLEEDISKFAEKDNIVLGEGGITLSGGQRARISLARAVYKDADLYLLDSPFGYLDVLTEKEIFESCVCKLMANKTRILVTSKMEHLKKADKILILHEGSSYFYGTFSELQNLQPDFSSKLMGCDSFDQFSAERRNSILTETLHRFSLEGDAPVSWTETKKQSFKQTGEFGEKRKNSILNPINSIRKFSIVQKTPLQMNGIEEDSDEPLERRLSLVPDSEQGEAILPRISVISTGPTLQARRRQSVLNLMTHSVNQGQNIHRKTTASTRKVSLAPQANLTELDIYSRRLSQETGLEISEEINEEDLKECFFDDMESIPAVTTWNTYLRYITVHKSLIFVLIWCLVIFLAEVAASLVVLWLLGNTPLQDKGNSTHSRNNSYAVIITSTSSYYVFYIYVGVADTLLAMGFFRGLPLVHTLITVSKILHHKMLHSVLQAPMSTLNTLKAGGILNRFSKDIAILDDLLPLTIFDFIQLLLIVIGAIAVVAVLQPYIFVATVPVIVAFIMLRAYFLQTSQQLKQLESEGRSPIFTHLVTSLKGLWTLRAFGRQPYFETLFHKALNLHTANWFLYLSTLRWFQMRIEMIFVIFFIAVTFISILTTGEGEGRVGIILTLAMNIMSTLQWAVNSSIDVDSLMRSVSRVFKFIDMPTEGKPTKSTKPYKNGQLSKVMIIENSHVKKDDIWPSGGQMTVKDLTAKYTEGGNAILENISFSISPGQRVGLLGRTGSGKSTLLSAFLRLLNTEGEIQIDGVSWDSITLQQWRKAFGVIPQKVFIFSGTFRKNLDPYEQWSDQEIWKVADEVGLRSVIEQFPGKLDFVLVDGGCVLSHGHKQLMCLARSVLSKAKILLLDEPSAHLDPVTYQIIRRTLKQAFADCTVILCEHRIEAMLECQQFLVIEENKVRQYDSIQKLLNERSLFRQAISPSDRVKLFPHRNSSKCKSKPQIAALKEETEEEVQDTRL

Turning to `CCCCCCCCO` [octan-1-ol], in experiment [1] (1 mM, 125I efflux or patch-clamp), the “order of activation of CFTR by n-alkanols” value is recorded as “hexan-1-ol<heptan-1-ol<octan-1-ol<octan-2-ol<decan-1-ol”. Further, the “concentration at which plateau of CFTR activation is reached” value in experiment [1] (CHO-CFTR(+) cells) was determined as 1 mM. Moreover, the “activation of CFTR (125I efflux), in words” value in experiment [1] (CHO-CFTR(+) cells, n-alkanols 1 mM, FSK 1 μM, A23187 2 μM, α-GA 10 and 100 μM) is “increase in activation of CFTR”. Also, the EC50 in experiment [1] (CHO-CFTR(+) cells, read-out: half-activation dose) was 500 µM; in experiment [1] (EC50 of activation of CFTR (125I efflux rate constant), CHO-CFTR(+) cells, octan-1-ol 0.1 to 5 mM) it was roughly 500 µM; in experiment [2] (in the absence of FSK), 1140 µM; in experiment [2] (in the presence of FSK (1 μM)) it was 512 µM. In experiment [2] (octan-1-ol 0.1 to 10 mM, FSK 1 μM), the “activation of iodide efflux in Calu-3 cells, in words” value was “activates the exit of iodide”. In addition, the “effect on the basal level when the mutated channel is not present at the plasma membrane” value in experiment [3] is “has no effect on the basal level”. Moreover, in experiment [3] (1 mM), the “activation of ΔF508 mutated CFTR channel, in words” value is given as “specifically activates the ΔF508 mutated CFTR channel”. Moreover, in experiment [3] (octan-1-ol 1 mM), the “activation of mutated CFTR-ΔF508 channel as share of maximum activity (10 μM FSK+30 μM genistein = 100%)” value is given as “approximately 50%”. Moreover, the “cellular uncoupling shown by ATP-induced calcium response” value in experiment [4] is on record as “clearly uncouples the cells”.
